Assay results published in patent publication US20230193199A1, “Methods for Printing Functional Human Neural Tissue” (Wisconsin Alumni Research Foundation, priority 2021, published 2023).

Assays:
[1] = tested on: hPSC-derived cortical neural progenitor cells (NPCs); assay: Live/Dead assay of hPSC-NPCs cultured in fibrin gel; type: cell-based, human
Description: For cell culturing in the fibrin gel, dissociated hPSC-NPCs at a density of 1×10^6 were mixed with fibrinogen at the following concentrations (1, 2.5, 5, 10 and 20 mg/mL) as show in FIG. 5. 0.5 mg/mL aprotinin was added for preventing gel degradation. 1 μL of the fibrinogen-laden cells were dropped on the poly-O coated plates at RT (room temperature). 1 different concentrations of thrombin (0.5, 1, 2.5, 5 and 10 U) solution with 2.5 mM CaCl2 were then added and mixed with the cells-fibrinogen solution. Fresh medium was added after gelation. Cells were encapsulated in the fibrin gel constructs and cultured at 37° C. incubator for characterization. […] The cells, however, tended to aggregate at higher fibrinogen levels. Thus, 2.5 or 5 mg/mL fibrinogen with 0.5 or 1 U thrombin was used for identifying an optimal gelation time.
The cell viability was measured by Live/Dead assay. Briefly, Live/Dead® staining kit (Molecular Probes) was used to assess cell viability. Immediately after harvesting, the cells were incubated in DMEM/F12 containing 1 μM calcein AM and 2 μM ethidium homodimer I for 30 min. […] The number of live (green) and dead (red) cells were counted in each field using Cell Counter in Image-J. The live/dead cell numbers from the five images of one sample were averaged to give each data point and five samples were used to determine the viability.

[2] = tested on: glutamate receptor; assay: whole-cell patch-clamp recording of sEPSCs; type: cell-based, human; settings: holding potential −70 mV; CNQX 10 μM applied with D-APV 50
Description: Whole-cell patch-clamp recordings were made from human PSC-derived cortical glutamatergic and GABAergic neurons. The bath solution consisted of 135 mM NaCl, 3 mM KCl, 2 mM CaCl2, 1 mM MgCl2, 10 mM HEPES, 11 mM glucose, 10 mM sucrose, pH 7.4. Recording pipettes were filled with an intracellular solution containing 120 mM potassium D-gluconate, 1 mM ethylene glycol-bis (β-aminoethyl ether) N,N,N′,N′-tetraacetic acid (EGTA), 10 mM 4-(2-hydroxyethyl)piperazine-1-ethanesulfonic acid (HEPES), 4 mM ATP-Mg, 0.3 mM GTP-Na, 10 mM phosphocreatine, 0.1 mM CaCl2, 1 mM MgCl2, pH 7.2, 280-290 mOsm/L. Briefly, the neurons were held at −70 mV to record the Na+/K+ channel activities with voltage-clamp model. […] Spontaneous excitatory postsynaptic currents (sEPSCs) and spontaneous inhibitory currents (sIPSCs) were recorded in gap-free mode at a holding potential of −70 mV and 0 mV, respectively. sEPSCs were blocked by application of the glutamate receptor antagonist 6-Cyano-7-nitroquinoxaline-2,3-dione (CNQX, 10 μM) and D-(−)-2-amino-5-phosphonopentanoic acid (D-APV, 50 sIPSCs were blocked by application of the GABAA receptor antagonist bicuculline (10 An Olympus BX51WI microscope was used to visualize neurons. A MultiClamp 700B amplifier (Axon instruments, Molecular Devices, Sunnyvale, Calif., USA) was used to investigate the voltage clamp and current clamp recordings. […]

| Compound | spontaneous excitatory postsynaptic currents (sEPSCs) [2] | also measured |
| --- | --- | --- |
| thrombin |  | cell viability (percent of live cells to total cells) ([1]; increasing thrombin concentrations at fixed fibrinogen 2.5 mg/ml): decreased with increasing thrombin concentrations |
| fibrinogen |  | cell viability (percent of live cells to total cells) ([1]; increasing fibrinogen concentrations at fixed low thrombin (0.5 U)): not influenced |
| N#Cc1cc2c(cc1[N+](=O)[O-])=NC(=O)C(=O)N=2 [CNQX, 6-Cyano-7-nitroquinoxaline-2,3-dione] | blocked |  |
| N[C@H](CCCP(=O)(O)O)C(=O)O [D-APV, D-(−)-2-amino-5-phosphonopentanoic acid] | blocked |  |
